# Measurements as given in ChEMBL document CHEMBL3813668, “Design, synthesis, and biological evaluation of anti-EV71 agents” (Bioorg Med Chem Lett, 2016).
# pEC50: −log10 of the molar value.
# Experiments:
# [1] = Metabolic stability in mouse plasma assessed as compound remaining after 2 hrs; assay type: ADME, cell-free; conditions: read-out: Stability
# rhinovirus B14 = experiment: Antiviral activity against HRV-14 infected in H1HeLa cells after 2 days by XTT assay; assay type: functional, organism-based; conditions: Rhinovirus B, H1-HeLa, 48 h
# Enterovirus A71 = experiment: Antiviral activity against Enterovirus 71/Shenzhen/120F1/09 infected in human RD cells assessed as reduction in virus induced cell death after 72 hrs by CCK-8 assay; assay type: functional, organism-based; conditions: Enterovirus A, Shenzhen/120F1/09, RD
# [2] = Half life in mouse at 2 mg/kg, iv; assay type: ADME, organism-based; conditions: in vivo
# [3] = Clearance in mouse at 2 mg/kg, iv; assay type: ADME, organism-based; conditions: in vivo
# [4] = Volume of distribution in mouse at 2 mg/kg, iv; assay type: ADME, organism-based; conditions: in vivo
# [5] = AUC in mouse at 2 mg/kg, iv; assay type: ADME, organism-based; conditions: in vivo
# [6] = Half life in mouse at 5 mg/kg, ip; assay type: ADME, organism-based; conditions: in vivo
# [7] = Cmax in mouse at 5 mg/kg, ip; assay type: ADME, organism-based; design: dose 5 mg/kg, route intraperitoneal; conditions: in vivo
# [8] = AUC in mouse at 5 mg/kg, ip; assay type: ADME, organism-based; conditions: in vivo
# [9] = Bioavailability in mouse at 5 mg/kg, ip; assay type: ADME, organism-based; conditions: in vivo
Structure (SMILES),remaining at 2 h [1] [%],pEC50 (Enterovirus A71),other results
CCOC(=O)/C=C/[C@H](C[C@@H]1CCNC1=O)NC(=O)[C@H](Cc1ccc(F)cc1)n1cccc(NC(=O)c2cc(C)on2)c1=O,1.4,–,pEC50 (rhinovirus B14): 8.70
CCOC(=O)/C=C/[C@H](C[C@@H]1CCNC1=O)NC(=O)[C@H](Cc1ccc(F)c(F)c1)n1ccc2cc(-c3ccccc3F)[nH]c2c1=O,0,5.99,–
CCOC(=O)/C=C/[C@H](C[C@@H]1CCNC1=O)NC(=O)[C@H](Cc1ccc(F)c(F)c1)n1ccc2ccn(Cc3ccccc3)c2c1=O,–,< 4.00,–
O=C1OCC/C1=C\[C@H](C[C@@H]1CCNC1=O)NC(=O)[C@H](Cc1ccc(F)c(F)c1)n1ccc2cc(Br)[nH]c2c1=O,77,5.70,–
CCOC(=O)/C=C/[C@H](C[C@@H]1CCNC1=O)NC(=O)[C@H](Cc1ccc(F)c(F)c1)n1ccc2ccn(C)c2c1=O,–,< 4.00,–
O=C1OCC/C1=C\[C@H](C[C@@H]1CCNC1=O)NC(=O)[C@H](Cc1ccc(F)c(F)c1)n1ccc2cc[nH]c2c1=O,80,4.88,–
CCOC(=O)/C=C/[C@H](C[C@@H]1CCNC1=O)NC(=O)[C@H](Cc1ccc(F)c(F)c1)n1ccc2ccn(-c3ccccn3)c2c1=O,0.9,< 4.00,–
CCOC(=O)/C=C/[C@H](C[C@@H]1CCNC1=O)NC(=O)[C@H](Cc1ccccc1)n1ccc2cc[nH]c2c1=O,–,–,pEC50 (rhinovirus B14): 5.90
Cc1cc(C(=O)N[C@H](C(=O)C[C@@H](Cc2ccc(F)cc2)C(=O)N[C@H](/C=C2\CC(C)OC2=O)C[C@@H]2CCNC2=O)C(C)C)no1 (stereo not given in full),81,6.66,–
O=C1OCC/C1=C\[C@H](C[C@@H]1CCNC1=O)NC(=O)[C@H](Cc1ccc(F)c(F)c1)n1ccc2cc(-c3ccccc3F)[nH]c2c1=O,92,6.47,half-life [2]: 75.6 min; clearance [3]: 140 mL/min/kg; Vd [4]: 8.8 L/kg; AUC [5]: 0.25 µM·h
CCOC(=O)/C=C/[C@H](C[C@@H]1CCNC1=O)NC(=O)[C@H](Cc1ccc(F)c(F)c1)n1ccc2cc(Br)[nH]c2c1=O,0.3,6.30,–
Cc1cc(C(=O)N[C@H](C(=O)C[C@@H](Cc2ccc(F)cc2)C(=O)N[C@H](/C=C/S(C)(=O)=O)C[C@@H]2CCNC2=O)C(C)C)no1,–,5.82,–
CCOC(=O)/C=C/[C@H](C[C@@H]1CCNC1=O)NC(=O)[C@H](Cc1ccc(F)c(F)c1)n1ccc2ccn(CC3CC3)c2c1=O,–,< 4.00,–
CCOC(=O)/C=C/[C@H](C[C@@H]1CCNC1=O)NC(=O)[C@H](Cc1ccc(F)c(F)c1)n1ccc2cc[nH]c2c1=O,1,5.45,–

# Second part, led by results:
remaining at 2 h [1] [%],Structure (SMILES),pEC50 (Enterovirus A71),other results
26,Cc1cc(C(=O)N[C@H](C(=O)C[C@@H](Cc2ccc(F)cc2)C(=O)N[C@H](/C=C/C(=O)N2CCc3cc(Cl)ccc32)C[C@@H]2CCNC2=O)C(C)C)no1,6.74,–
2.4,Cc1cc(C(=O)N[C@H](C(=O)C[C@@H](Cc2ccc(F)cc2)C(=O)N[C@H](/C=C/C(=O)OCc2ccccc2)C[C@@H]2CCNC2=O)C(C)C)no1,6.85,–
24,Cc1cc(C(=O)N[C@H](C(=O)C[C@@H](Cc2ccc(F)cc2)C(=O)N[C@H](/C=C/S(=O)(=O)c2nccs2)C[C@@H]2CCNC2=O)C(C)C)no1,6.28,–
88,Cc1cc(C(=O)N[C@H](C(=O)C[C@@H](Cc2ccc(F)cc2)C(=O)N[C@H](/C=C/C(=O)N2CCOCC2)C[C@@H]2CCNC2=O)C(C)C)no1,5.05,–
82,Cc1cc(C(=O)N[C@H](C(=O)C[C@@H](Cc2ccc(F)cc2)C(=O)N[C@H](/C=C/C(=O)N2CCCC2)C[C@@H]2CCNC2=O)C(C)C)no1,4.92,–
5.3,Cc1cc(C(=O)N[C@H](C(=O)C[C@@H](Cc2ccc(F)cc2)C(=O)N[C@H](/C=C/C(=O)OC2CCC2)C[C@@H]2CCNC2=O)C(C)C)no1,6.59,–
54,Cc1cc(C(=O)N[C@H](C(=O)C[C@@H](Cc2ccc(F)cc2)C(=O)N[C@H](/C=C/C(=O)N2CCC(F)(F)C2)C[C@@H]2CCNC2=O)C(C)C)no1,6.12,–
63,Cc1cc(C(=O)N[C@H](C(=O)C[C@@H](Cc2ccc(F)cc2)C(=O)N[C@H](/C=C/C(=O)N2CCC(F)(F)CC2)C[C@@H]2CCNC2=O)C(C)C)no1,5.91,–
88,Cc1cc(C(=O)N[C@H](C(=O)C[C@@H](Cc2ccc(F)cc2)C(=O)N[C@H](/C=C2\CCOC2=O)C[C@@H]2CCNC2=O)C(C)C)no1,7.55,half-life [2]: 12 min; half-life [6]: 10.8 min; Cmax [7]: 2570 nM; clearance [3]: 130 mL/min/kg; Vd [4]: 1.6 L/kg; AUC [5]: 0.444 µM·h; AUC [8]: 1.28 µM·h; bioavailability [9]: 115%
2.7,CCOC(=O)/C=C/[C@H](C[C@@H]1CCNC1=O)NC(=O)[C@@H](CC(=O)[C@@H](NC(=O)c1cc(C)on1)C(C)C)Cc1ccc(F)cc1 [RUPINTRIVIR],8.05,–
